We go through 10 compounds from ChEMBL document CHEMBL1201862, “PubChem BioAssay data set” (2004).

Each structure is given as a SMILES string.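 Each compound was tested at five concentrations against cells in 96-well plates for 48 hours. Here, GI50 denotes the concentration required for 50% inhibition of growth.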 Active and inactive are the calls of the source. Rule as the data show it: active = GI50 up to about 1.1 µM and inactive = higher.

Test in all cases: growth of human tumour cells (NCI), 48 h
In assay [1] the test system is NCI-H23.
In assay [2] the test system is SW-620.
Assay [3] relates to NCI-H522.
The subject of assay [4] is HOP-62.
Assay [5] relates to A549.
The test system of assay [6] is SR.
Assay [7] has as its system ACHN.
Assay [8] deals with Malme-3M.
Assay [9] deals with DMS-114.
Assay [10] concerns HOP-92.
Assay [11] deals with OVCAR-8.
Assay [12] relates to CCRF-CEM.
Assay [13] deals with CAKI-1.
Assay [14] relates to HL-60.
Assay [15] deals with EKVX.
The test system of assay [16] is MCF7.
For assay [17], the system named is MDA-MB-231.
In assay [18] the test system is MDA-N.
In assay [19] the test system is SF-295.
Assay [20] concerns SK-OV-3.

On to `COc1ccc(/C=c2\sc3n(c2=O)C(N)=C(C#N)C(c2ccc(OC)cc2)C=3c2nc3ccccc3[nH]2)cc1` (stereo not drawn), for which the GI50 in [1] is 5.02 µM (inactive); in assay [2], 27.7 µM (inactive); in assay [3] it was 45.7 µM (inactive); in assay [4] it was 38.7 µM (inactive); in assay [5] it was 33.7 µM (inactive); in assay [6] it was 39.5 µM (inactive). Moreover, the GI50 is 34.4 µM (inactive) in assay [7]; 22.6 µM (inactive) in [8]; 30.8 µM (inactive) in [9]; 12.2 µM (inactive) in [10]; > 10 µM (inactive) in assay [11]; 39.2 µM (inactive) in assay [12]. The GI50 was 21.4 µM (inactive) in assay [13], 41.2 µM (inactive) in [14] and 22.6 µM (inactive) in assay [15].

For the compound `O=S(=O)(O)c1cc(/N=N/c2cc(S(=O)(=O)O)c3cccnc3c2O)ccc1/C=C/c1ccc(/N=N/c2cc(S(=O)(=O)O)c3cccnc3c2O)cc1S(=O)(=O)O`, the GI50 in assay [1], in [2], in [3], in [4], in assay [16] and in assay [17] was > 100 µM (inactive) throughout. Besides, the GI50 in assay [5] is > 100 µM (inactive); in [6] it was 21.7 µM (inactive); in assay [18], > 100 µM (inactive); in assay [7], > 100 µM (inactive); in [8], > 100 µM (inactive); in [9], > 100 µM (inactive). The GI50 in [10] is > 72.4 µM (inactive); in [19], > 100 µM (inactive); in [20] it was > 100 µM (inactive); in assay [11], > 100 µM (inactive); in assay [12], 18.3 µM (inactive); in assay [13] it was > 100 µM (inactive). In addition, the GI50 was 18.6 µM (inactive) in assay [14] and > 100 µM (inactive) in assay [15].

Consider `CC(C)C(Sc1nc(-c2ccccc2)c(-c2ccccc2)[nH]1)C(=O)N/N=C/c1ccc([N+](=O)[O-])cc1` (stereo not drawn), for which the GI50 in [1] is 16.7 µM (inactive); in [2] it was 14.3 µM (inactive); in [3] it was 15.3 µM (inactive); in assay [4] it was 20.8 µM (inactive); in assay [5] it was 27.3 µM (inactive); in assay [6], 1.12 µM (inactive). Further, the GI50 is 15.6 µM (inactive) in assay [7]; 13.9 µM (inactive) in [8]; 25.9 µM (inactive) in assay [9]; 10.4 µM (inactive) in [10]; 15.8 µM (inactive) in assay [19]; 22.8 µM (inactive) in assay [20]. The GI50 in [11] was 29.1 µM (inactive); in assay [12], 4.05 µM (inactive); in assay [13] it was 21.1 µM (inactive); in assay [14], 13.6 µM (inactive); in assay [15] it was 20.4 µM (inactive).

Consider `CC(C)C1=Cc2ccc3c(c2C(=O)C1=O)CCCC3`, for which the GI50 in [1] was 9.42 µM (inactive); in assay [2], 3.3 µM (inactive); in [3] it was 2.27 µM (inactive); in assay [4] it was 21.4 µM (inactive); in [16], 1.59 µM (inactive); in assay [17] it was 16 µM (inactive). The GI50 in assay [5] was 5.96 µM (inactive); in assay [6], 0.515 µM (active); in assay [18], 6.61 µM (inactive); in assay [7], 3.49 µM (inactive); in assay [8], 2.58 µM (inactive); in assay [9] it was 1.16 µM (inactive). Further, the GI50 in assay [10] was 0.998 µM (active); in assay [19], 12.8 µM (inactive); in [20], 2.92 µM (inactive); in assay [11] it was 5.64 µM (inactive); in assay [12], 0.65 µM (active); in assay [13], 0.955 µM (active). In addition, the GI50 is 1.01 µM (active) in [14] and 9.14 µM (inactive) in [15].

In the case of `CN1CCN(C)C12C=c1ccccc1=CC21CC1`, the GI50 was > 100 µM (inactive) in assay [1]; 22.2 µM (inactive) in [2]; 24.5 µM (inactive) in assay [3]; > 91.4 µM (inactive) in [4]; 35.4 µM (inactive) in assay [16]; 38.4 µM (inactive) in assay [17]. The GI50 in [5] was > 91.4 µM (inactive); in assay [6], 25.3 µM (inactive); in [18], 27.4 µM (inactive); in assay [7] it was 74.8 µM (inactive); in [8], 28.5 µM (inactive); in [9], 18.2 µM (inactive). Moreover, the GI50 in [10] is 28.7 µM (inactive); in [19] it was > 77.6 µM (inactive); in [20], > 92.9 µM (inactive); in [11], 53.5 µM (inactive); in assay [12], 24.2 µM (inactive); in [13], 74.1 µM (inactive). In addition, the GI50 is 3.02 µM (inactive) in assay [14] and > 95.9 µM (inactive) in assay [15].

Regarding `COc1cc(CC(C(=O)O)C(=O)O)c(OC)cc1CC(C(=O)O)C(=O)O`, the GI50 in assay [1], in assay [2], in assay [3], in assay [4], in [5] and in [6] was > 100 µM (inactive) throughout. For the same compound, the GI50 in assay [8], in assay [9], in [10], in assay [19], in assay [20] and in assay [11] was > 100 µM (inactive) throughout. Moreover, the GI50 in assay [12], in [13], in assay [14] and in assay [15] was > 100 µM (inactive) throughout.

Regarding `C/C(=N\O)c1sc(-n2nc(-c3ccccc3)cc2-c2ccccc2)nc1C`, the GI50 in assay [1] was 8.15 µM (inactive); in assay [2], 13.1 µM (inactive); in assay [3] it was 12.1 µM (inactive); in [4] it was 12 µM (inactive); in assay [5], 14.2 µM (inactive); in [6], 15.3 µM (inactive). Moreover, the GI50 was 11.9 µM (inactive) in [7]; 16.9 µM (inactive) in [8]; 12.4 µM (inactive) in assay [9]; > 10 µM (inactive) in assay [10]; 14 µM (inactive) in assay [19]; > 10 µM (inactive) in [20]. For the same compound, the GI50 is 12 µM (inactive) in assay [11]; 12.3 µM (inactive) in assay [12]; 13.1 µM (inactive) in assay [13]; 14 µM (inactive) in assay [14]; 6.35 µM (inactive) in assay [15].

As to `CCCCCCCCCc1cc(=O)c2ccc(O)cc2o1`, the GI50 in [1] is 63.5 µM (inactive); in assay [2] it was 67.6 µM (inactive); in assay [3] it was 31.4 µM (inactive); in assay [4] it was > 100 µM (inactive); in [5] it was 37.6 µM (inactive); in [6], 24.3 µM (inactive). The GI50 was 42.2 µM (inactive) in assay [7]; > 100 µM (inactive) in assay [8]; 11.3 µM (inactive) in assay [9]; 16.4 µM (inactive) in assay [10]; 47 µM (inactive) in assay [19]; 60.3 µM (inactive) in assay [20]. Besides, the GI50 in [11] is 27.1 µM (inactive); in [12] it was 16.9 µM (inactive); in assay [13], 4.66 µM (inactive); in [14] it was 11.6 µM (inactive); in assay [15], > 100 µM (inactive).

In the case of `COc1c(Cl)c2c(c(OC)c1OC)-c1ccc(OC)c(=O)c(Cl)c1C(NC(C)=O)CC2` (stereo not drawn), the GI50 in assay [1] was 0.269 µM (active); in assay [2], 0.12 µM (active); in [3] it was 0.148 µM (active); in [4], 0.306 µM (active); in assay [5], 0.225 µM (active); in [6], 0.444 µM (active). The GI50 in [7] was 0.668 µM (active); in assay [8], 0.155 µM (active); in [9], 0.224 µM (active); in assay [10] it was 0.117 µM (active); in assay [19], 0.14 µM (active); in assay [20], 0.133 µM (active). For the same compound, the GI50 in assay [11] was 0.353 µM (active); in assay [12], 0.305 µM (active); in assay [13], 0.608 µM (active); in [14] it was 0.169 µM (active); in [15] it was 7.35 µM (inactive).

In the case of `O=C1c2c(nc3ccccc3c2-c2ccccc2)CN1Nc1ccccc1`, the GI50 is > 100 µM (inactive) in [2]; > 100 µM (inactive) in [3]; 53.8 µM (inactive) in [4]; > 100 µM (inactive) in assay [5]; > 100 µM (inactive) in assay [6]; > 100 µM (inactive) in [8]. Further, the GI50 in assay [9], in assay [10], in assay [20], in assay [11], in [12] and in [13] was > 100 µM (inactive) each time. Besides, the GI50 was 45.3 µM (inactive) in [14] and > 100 µM (inactive) in [15].
